Here are results for six cell lines from the supplement of paper PMC10307832.

Assay in all cases: relative viability (nuclei count vs DMSO), 5 days (fraction); higher = more cells survive
Compound in assay [1]: O=c1[nH]cc(F)c(=O)[nH]1 [5-Fluorouracil] + Cc1nc(NC(=O)N2CCC[C@H]2C(N)=O)sc1-c1ccnc(C(C)(C)C(F)(F)F)c1 [Alpelisib] (partner 2 µM)
The procedure, abridged: (§1)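 Relative viability was taken as the ratio of nuclei in treated wells to nuclei in vehicle wells. Lung cancer cell lines in 1536-well plates received compounds by pin tool one day after seeding, either one drug alone or a fixed anchor-drug dose plus five library-drug doses (not always all listed) in √10 steps. Nuclei were counted on 4× images after 5 days of treatment, and values are medians of duplicate plates.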

Compound in assay [2]: CN[C@@H]1C[C@H]2O[C@@](C)([C@@H]1OC)n1c3ccccc3c3c4c(c5c6ccccc6n2c5c31)C(=O)NC4 [Staurosporine] + COc1cc2c(Oc3ccc(NC(=O)C4(C(=O)Nc5ccc(F)cc5)CC4)cc3F)ccnc2cc1OCCCN1CCOCC1 [Foretinib] (partner 0.25 µM)
The procedure, abridged: as §1

Compound in assay [3]: CN[C@@H]1C[C@H]2O[C@@](C)([C@@H]1OC)n1c3ccccc3c3c4c(c5c6ccccc6n2c5c31)C(=O)NC4 [Staurosporine] + CS(=O)(=O)N1CCN(Cc2cc3nc(-c4cccc5[nH]ncc45)nc(N4CCOCC4)c3s2)CC1 [Pictilisib] (partner 1 µM)
The method in brief: as §1

Compound in the assay “Sulindac + Pemetrexed”: CC1=C(CC(=O)O)c2cc(F)ccc2/C1=C\c1ccc([S+](C)[O-])cc1 [Sulindac] + Nc1nc2[nH]cc(CCc3ccc(C(=O)N[C@@H](CCC(=O)O)C(=O)O)cc3)c2c(=O)[nH]1 [Pemetrexed] (partner 0.2 µM)
The procedure, abridged:
as §1

Turning to NCI-H2126, the relative viability came to 0.668 in assay [1] (first compound 0.02 µM); 0.337 in assay [1] (first compound 0.2 µM); 0.274 in assay [1] (first compound 0.6325 µM); 0.272 in assay [1] (first compound 2 µM); 1.35 in assay [2] (first compound 0.005 µM); 0.69 in assay [2] (first compound 0.01581 µM). For the same cell line, the relative viability in assay [2] (first compound 0.05 µM) worked out at 0.634; in assay [2] (first compound 0.1581 µM) it was 0.613; in assay [2] (first compound 0.5 µM), 0.297; in assay [3] (first compound 0.005 µM), 0.496; in assay [3] (first compound 0.01581 µM) it was 0.309; in assay [3] (first compound 0.05 µM), 0.342. The relative viability was determined as 0.278 in assay [3] (first compound 0.1581 µM); 0.286 in assay [3] (first compound 0.5 µM); 0.774 in the assay with Sulindac + Pemetrexed (first compound 0.08 µM); 0.68 in the assay with Sulindac + Pemetrexed (first compound 0.253 µM); 0.658 with Sulindac + Pemetrexed (first compound 0.8 µM); 0.692 with Sulindac + Pemetrexed (first compound 2.53 µM). In addition, in the assay with Sulindac + Pemetrexed (first compound 8 µM), the relative viability worked out at 0.699.
As to NCI-H2170, the relative viability was 0.82 in assay [1] (first compound 0.02 µM); 0.734 in assay [1] (first compound 0.2 µM); 0.472 in assay [1] (first compound 0.6325 µM); 0.452 in assay [1] (first compound 2 µM); 1.04 in assay [2] (first compound 0.005 µM); 0.866 in assay [2] (first compound 0.05 µM). The relative viability stood at 0.382 in assay [2] (first compound 0.1581 µM); 0.307 in assay [2] (first compound 0.5 µM); 0.302 in assay [3] (first compound 0.005 µM); 0.165 in assay [3] (first compound 0.01581 µM); 0.232 in assay [3] (first compound 0.05 µM); 0.151 in assay [3] (first compound 0.1581 µM). The relative viability in assay [3] (first compound 0.5 µM) amounted to 0.113; with Sulindac + Pemetrexed (first compound 0.08 µM), 0.282; with Sulindac + Pemetrexed (first compound 0.253 µM) it was 0.252; in the assay with Sulindac + Pemetrexed (first compound 0.8 µM) it was 0.371; with Sulindac + Pemetrexed (first compound 2.53 µM), 0.267; in the assay with Sulindac + Pemetrexed (first compound 8 µM) it was 0.278.
For the cell line NCI-H2228, the relative viability in assay [1] (first compound 0.02 µM) is 0.582; in assay [1] (first compound 0.2 µM), 0.655; in assay [1] (first compound 0.6325 µM) it was 0.59; in assay [1] (first compound 2 µM), 0.409; in assay [2] (first compound 0.005 µM), 0.889; in assay [2] (first compound 0.01581 µM), 0.537. Also, the relative viability in assay [2] (first compound 0.05 µM) worked out at 0.317; in assay [2] (first compound 0.1581 µM), 0.11; in assay [2] (first compound 0.5 µM), 0.0985; in assay [3] (first compound 0.005 µM), 0.187; in assay [3] (first compound 0.01581 µM), 0.139; in assay [3] (first compound 0.05 µM), 0.325. Besides, the relative viability was determined as 0.116 in assay [3] (first compound 0.1581 µM); 0.0619 in assay [3] (first compound 0.5 µM); 0.376 with Sulindac + Pemetrexed (first compound 0.08 µM); 0.445 with Sulindac + Pemetrexed (first compound 0.253 µM); 0.289 in the assay with Sulindac + Pemetrexed (first compound 0.8 µM); 0.371 with Sulindac + Pemetrexed (first compound 2.53 µM). Moreover, the relative viability with Sulindac + Pemetrexed (first compound 8 µM) was 0.319.
On to NCI-H2347, for which the relative viability in assay [1] (first compound 0.02 µM) is 1.09; in assay [1] (first compound 0.2 µM) it was 0.709; in assay [1] (first compound 0.6325 µM) it was 0.457; in assay [1] (first compound 2 µM), 0.447; in assay [2] (first compound 0.005 µM), 1.04; in assay [2] (first compound 0.01581 µM), 0.588. For the same cell line, the relative viability in assay [2] (first compound 0.05 µM) came out at 0.374; in assay [2] (first compound 0.1581 µM) it was 0.289; in assay [2] (first compound 0.5 µM), 0.422; in assay [3] (first compound 0.005 µM), 0.836; in assay [3] (first compound 0.01581 µM) it was 0.217; in assay [3] (first compound 0.05 µM), 0.487. The relative viability in assay [3] (first compound 0.1581 µM) turned out to be 0.333; in assay [3] (first compound 0.5 µM), 0.357; with Sulindac + Pemetrexed (first compound 0.08 µM), 0.429; with Sulindac + Pemetrexed (first compound 0.253 µM) it was 0.394; with Sulindac + Pemetrexed (first compound 2.53 µM) it was 0.461; with Sulindac + Pemetrexed (first compound 8 µM) it was 0.414.
Turning to NCI-H2405, the relative viability in assay [1] (first compound 0.02 µM) is 0.793; in assay [1] (first compound 0.2 µM), 0.705; in assay [1] (first compound 0.6325 µM), 0.737; in assay [1] (first compound 2 µM), 0.609; in assay [2] (first compound 0.005 µM) it was 0.675; in assay [2] (first compound 0.01581 µM) it was 0.302. Further, the relative viability in assay [2] (first compound 0.1581 µM) was found to be 0.105; in assay [2] (first compound 0.5 µM) it was 0.0788; in assay [3] (first compound 0.005 µM) it was 0.284; in assay [3] (first compound 0.01581 µM), 0.135; in assay [3] (first compound 0.05 µM), 0.103; in assay [3] (first compound 0.1581 µM) it was 0.0688. Also, the relative viability in assay [3] (first compound 0.5 µM) was 0.064; with Sulindac + Pemetrexed (first compound 0.08 µM), 1.14; with Sulindac + Pemetrexed (first compound 0.253 µM) it was 1.17; with Sulindac + Pemetrexed (first compound 0.8 µM), 0.971; with Sulindac + Pemetrexed (first compound 2.53 µM) it was 0.926; with Sulindac + Pemetrexed (first compound 8 µM), 1.15.
Turning to NCI-H3122, the relative viability came to 0.796 in assay [1] (first compound 0.02 µM); 0.653 in assay [1] (first compound 0.2 µM); 0.371 in assay [1] (first compound 0.6325 µM); 0.246 in assay [1] (first compound 2 µM); 1.03 in assay [2] (first compound 0.005 µM); 0.76 in assay [2] (first compound 0.05 µM). In addition, the relative viability turned out to be 0.695 in assay [2] (first compound 0.1581 µM); 0.371 in assay [2] (first compound 0.5 µM); 0.668 in assay [3] (first compound 0.005 µM); 0.306 in assay [3] (first compound 0.01581 µM); 0.566 in assay [3] (first compound 0.05 µM); 0.441 in assay [3] (first compound 0.1581 µM). Further, the relative viability is 0.118 in assay [3] (first compound 0.5 µM); 0.203 with Sulindac + Pemetrexed (first compound 0.08 µM); 0.194 with Sulindac + Pemetrexed (first compound 0.253 µM); 0.207 with Sulindac + Pemetrexed (first compound 0.8 µM); 0.176 in the assay with Sulindac + Pemetrexed (first compound 2.53 µM); 0.214 with Sulindac + Pemetrexed (first compound 8 µM).
